In patent US11161854B2, “Indazolyl-spiro[2.2]pentane-carbonitrile derivatives as LRRK2 inhibitors, pharmaceutical compositions, and uses thereof” (Merck Sharp & Dohme Corp., priority 2017, dated 2021):

Target: GST-tagged truncated human mutant G2019S LRRK2 (Homo sapiens (Human), UniProt Q5S007, G2019S)
Test: LRRK2 G2019S Km ATP LanthaScreen Assay
Assay type: biochemical
Conditions: 134 μM ATP (Km ATP); fluorescein-labeled LRRKtide substrate; mean IC50 values
Protocol: The IC50 values reported herein were measured as follows.
Biological Assay: LRRK2 Km ATP LanthaScreen™ Assay
The data presented for the Km ATP LanthaScreen™ Assay represents mean IC50 values based on several test results and may have reasonable deviations depending on the specific conditions and reagents used. Assays were performed in the presence of 134 μM ATP (Km ATP). Upon completion, the assay was stopped and phosphorylated substrate detected with a terbium (Tb)-labeled anti-pERM antibody (cat. no. PV4898). The compound dose response was prepared by diluting a 10 mM stock of compound to a maximum concentration of […] in 100% dimethylsulfoxide followed by custom fold serial dilution in dimethylsulfoxide nine times. Twenty nanoliters of each dilution was spotted via a Labcyte Echo onto a 384-well black-sided plate (Corning 3575) followed by 15 μl of a 1.25 nM enzyme solution in 1× assay buffer (50 mM Tris pH 8.5, 10 mM MgCl2, 0.01% Brij-35, 1 mM EGTA, 2 mM dithiothreitol, 0.05 mM sodium orthovanadate). Following a 15-minute incubation at room temperature, the kinase reaction was started with the addition of 5 μl of 400 nM fluorescein-labeled LRRKtide peptide substrate and 134 μM ATP solution in 1× assay buffer. The reaction was allowed to progress at ambient temperature for 90 minutes. The reaction was then stopped by the addition of 20 μl of TR-FRET Dilution Buffer (Life Technologies, Carlsbad, Calif.) containing 2 nM Tb-labeled anti-phospho LRRKtide antibody and 10 mM EDTA (Life Technologies, Carlsbad, Calif.). After an incubation of 1 hour at room temperature, the plate was read on an EnVision multimode plate reader (Perkin Elmer, Waltham, Mass.) with an excitation wavelength of 337 nm (Laser) and a reading emission at both 520 and 495 nm. […] Abase uses a 4 parameter (4P) logistic fit based on the Levenberg-Marquardt algorithm.

Sequence of GST-tagged truncated human mutant G2019S LRRK2 (Q5S007 970-2527 G2019S): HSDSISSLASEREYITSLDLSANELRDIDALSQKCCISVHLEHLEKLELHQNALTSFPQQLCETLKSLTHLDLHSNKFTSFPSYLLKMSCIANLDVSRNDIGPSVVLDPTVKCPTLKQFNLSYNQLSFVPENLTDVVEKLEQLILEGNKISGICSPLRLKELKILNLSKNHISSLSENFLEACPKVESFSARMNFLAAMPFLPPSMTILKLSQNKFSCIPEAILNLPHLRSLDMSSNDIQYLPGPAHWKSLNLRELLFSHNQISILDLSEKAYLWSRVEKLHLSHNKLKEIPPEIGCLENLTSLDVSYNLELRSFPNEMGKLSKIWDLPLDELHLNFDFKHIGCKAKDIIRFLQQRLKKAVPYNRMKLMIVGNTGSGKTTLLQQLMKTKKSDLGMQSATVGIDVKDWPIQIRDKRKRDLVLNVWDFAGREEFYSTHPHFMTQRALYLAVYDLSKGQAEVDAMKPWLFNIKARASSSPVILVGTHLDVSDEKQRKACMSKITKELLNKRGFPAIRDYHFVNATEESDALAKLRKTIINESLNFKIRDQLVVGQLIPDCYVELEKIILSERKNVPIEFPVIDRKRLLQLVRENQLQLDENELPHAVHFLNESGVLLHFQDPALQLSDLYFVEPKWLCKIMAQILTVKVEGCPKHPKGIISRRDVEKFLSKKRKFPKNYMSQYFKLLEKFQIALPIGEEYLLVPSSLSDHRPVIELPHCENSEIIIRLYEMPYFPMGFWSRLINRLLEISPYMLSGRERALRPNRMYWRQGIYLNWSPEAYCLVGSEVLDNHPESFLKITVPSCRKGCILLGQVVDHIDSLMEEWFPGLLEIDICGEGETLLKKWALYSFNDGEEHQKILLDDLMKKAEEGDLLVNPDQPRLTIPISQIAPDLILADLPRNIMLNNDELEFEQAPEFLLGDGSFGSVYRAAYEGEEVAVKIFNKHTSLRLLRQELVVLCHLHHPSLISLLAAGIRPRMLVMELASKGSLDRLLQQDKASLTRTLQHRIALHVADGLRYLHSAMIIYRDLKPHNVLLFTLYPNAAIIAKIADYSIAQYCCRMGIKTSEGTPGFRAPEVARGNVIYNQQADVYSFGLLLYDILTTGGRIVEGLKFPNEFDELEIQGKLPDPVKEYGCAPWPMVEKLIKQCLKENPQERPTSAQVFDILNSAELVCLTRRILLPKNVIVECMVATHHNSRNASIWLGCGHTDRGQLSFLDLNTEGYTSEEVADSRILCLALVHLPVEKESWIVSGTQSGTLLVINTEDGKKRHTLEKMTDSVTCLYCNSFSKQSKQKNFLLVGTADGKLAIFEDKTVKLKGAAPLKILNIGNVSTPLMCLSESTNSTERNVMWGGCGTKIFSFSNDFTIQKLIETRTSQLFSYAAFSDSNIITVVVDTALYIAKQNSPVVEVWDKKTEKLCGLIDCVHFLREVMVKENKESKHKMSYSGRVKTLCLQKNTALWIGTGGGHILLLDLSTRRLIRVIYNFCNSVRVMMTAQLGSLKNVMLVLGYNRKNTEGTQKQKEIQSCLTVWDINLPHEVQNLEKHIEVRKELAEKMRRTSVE

Q: With `Cc1nc(N2CC3(C(C)(C)O)CC2C3)cc(-n2ncc3ccc(C4(C#N)CC45CC5)cc32)n1` (single isomer, unassigned) [Example 2.4-1, 1-(1-(6-(4-(2-hydroxypropan-2-yl)-2-azabicyclo[2.1.1]hexan-2-yl)-2-methylpyrimidin-4-yl)-1H-indazol-6-yl)spiro[2.2]pentane-1-carbonitrile] as the compound, how does the IC50 read?
A: 2.1 nM

Q: Which IC50 does the source give for `Cc1nc(N2CC3(C(C)(C)O)CC2C3)cc(-n2ncc3c(F)cc(C4(C#N)CC45CC5)cc32)n1` (stereo not shown) [Example 4.16] here?
A: 0.6 nM

Q: For `Cc1cc(-n2ncc3ccc([C@]4(C#N)CC45CC5)cc32)cc(C)n1` [Example 11.5], which IC50 is on record?
A: 7.8 nM

Q: With `CC1CN(c2cc(-n3ncc4ccc([C@]5(C#N)CC56CC6)cc43)ncn2)CC1C(C)(C)O` (single isomer, unassigned) [Example 3.6-2] as the compound, how does the IC50 read?
A: 0.6 nM

Q: Which IC50 does the source give for `N#C[C@]1(c2ccc3cnn(-c4cc(N5CC(O)C6(CC6)C5)ncn4)c3c2)CC12CC2` (single isomer, unassigned) [Example 3.11-3] here?
A: 6.3 nM

Q: With `CNc1nc(N2CC[C@H](C(F)F)C2)cc(-n2ncc3ccc(C4(C#N)CC45CC5)cc32)n1` (single isomer, unassigned) [Example 2.8-2] as the compound, how does the IC50 read?
A: 1.1 nM

Q: `C[C@@H]1CN(c2cc(-n3ncc4ccc([C@]5(C#N)CC56CC6)cc43)ncn2)CCN1C1CCOC1` (single isomer, unassigned) [Example 3.7-4] was tested. Which IC50 did it give?
A: 2 nM

Q: For `C[C@@H]1CN(c2cc(-n3ncc4cnc(C5(C#N)CC56CC6)cc43)ncn2)C[C@H](C)[C@]1(C)O` (single isomer, unassigned) [Example 5.4-2], which IC50 is on record?
A: 2.6 nM

Q: With `CC(C)(O)[C@@H]1CCN(c2cc(-n3ncc4ccc([C@@]5(C#N)CC56CC6)cc43)ccn2)C1` [Example 6.2-1] as the compound, how does the IC50 read?
A: 1.8 nM

Q: How did the IC50 turn out when `C[C@H]1CN(c2cc(-n3ncc4ccc([C@]5(C#N)CC56CC6)cc43)ncn2)CCN1C1CCOC1` (stereo partly shown) [Example 3.8-4] was run?
A: 0.6 nM

Q: For `C[C@@H]1CN(c2cc(-n3ncc4ccc([C@]5(C#N)CC56CC6)cc43)ncn2)C[C@H](C)[C@]1(C)O` [Example 3.2], which IC50 is on record?
A: 1.1 nM

Q: With `CC(C)(O)[C@@H]1CCN(c2cc(-n3ncc4ccc(C5(C#N)CC56CC6)cc43)cnn2)C1` (single isomer, unassigned) [Example 10.4-2] as the compound, how does the IC50 read?
A: 2.7 nM

Q: `C[C@H]1CN(c2cc(-n3ncc4ccc([C@@]5(C#N)CC56CC6)cc43)ncn2)CCN1C1CCOC1` (single isomer, unassigned) [Example 3.8-3] was tested. Which IC50 did it give?
A: 1.3 nM

Q: Which IC50 does the source give for `CC(C)(O)[C@@H]1CCN(c2cc(-n3ncc4cc(F)c(C5(C#N)CC56CC6)cc43)ncn2)C1` (single isomer, unassigned) [Example 5.7-1] here?
A: 21.7 nM

Q: `CC(C)(O)[C@@H]1CCN(c2cc(-n3ncc4ccc([C@]5(C#N)CC56CC6)cc43)ncn2)C1` [Example 1.4-2, (S)-1-(1-(6-((R)-3-(2-hydroxypropan-2-yl)pyrrolidin-1-yl)pyrimidin-4-yl)-1H-indazol-6-yl)spiro[2.2]pentane-1-carbonitrile] was tested. Which IC50 did it give?
A: 0.9 nM

Q: Which IC50 does the source give for `Cc1nc(N2CCN(C3(C)COC3)CC2)cc(-n2ncc3ccc([C@]4(C#N)CC45CC5)cc32)n1` [Example 11.1, (S)-1-(1-(2-methyl-6-(4-(3-methyloxetan-3-yl)piperazin-1-yl)pyrimidin-4-yl)-1H-indazol-6-yl)spiro[2.2]pentane-1-carbonitrile] here?
A: 0.6 nM

Q: With `CC(C)(O)C12CC(C1)N(c1cc(-n3ncc4cc(F)c(C5(C#N)CC56CC6)cc43)ncn1)C2` (single isomer, unassigned) [Example 5.5-2, 1-(5-fluoro-1-(6-(4-(2-hydroxypropan-2-yl)-2-azabicyclo[2.1.1]hexan-2-yl)pyrimidin-4-yl)-1H-indazol-6-yl)spiro[2.2]pentane-1-carbonitrile] as the compound, how does the IC50 read?
A: 31.6 nM

Q: For `CNc1nc(C)cc(-n2ncc3ccc([C@]4(C#N)CC45CC5)cc32)n1` [Example 4.25], which IC50 is on record?
A: 3.5 nM

Q: With `CC(C)(O)[C@@H]1CCN(c2cc(-n3ncc4ccc([C@]5(C#N)CC56CC6)cc43)ccn2)C1` [Example 6.2-2] as the compound, how does the IC50 read?
A: 0.9 nM

Q: For `CC(C)(O)C12CC(C1)N(c1cc(-n3ncc4ccc(C5(C#N)CC56CC6)cc43)cnn1)C2` (single isomer, unassigned) [Example 10.3-2, (R or S)-1-(1-(6-(4-(2-hydroxypropan-2-yl)-2-azabicyclo[2.1.1]hexan-2-yl)pyridazin-4-yl)-1H-indazol-6-yl)spiro[2.2]pentane-1-carbonitrile], which IC50 is on record?
A: 15.4 nM

Q: With `CC(C)(O)C12CC(C1)N(c1cc(-n3ncc4ccc([C@]5(C#N)CC56CC6)cc43)nc(N3CCC3)n1)C2` [Example 8.5, (S)-1-(1-(2-(azetidin-1-yl)-6-(4-(2-hydroxypropan-2-yl)-2-azabicyclo[2.1.1]hexan-2-yl)pyrimidin-4-yl)-1H-indazol-6-yl)spiro[2.2]pentane-1-carbonitrile] as the compound, how does the IC50 read?
A: 9.8 nM

Q: `Cc1cc(-n2ncc3ccc(C4(C#N)CC45CC5)cc32)cc(N2CC3(C(C)(C)O)CC2C3)n1` (single isomer, unassigned) [Example 7.3-2, (R or S)-1-(1-(2-(4-(2-hydroxypropan-2-yl)-2-azabicyclo[2.1.1]hexan-2-yl)-6-methylpyridin-4-yl)-1H-indazol-6-yl)spiro[2.2]pentane-1-carbonitrile] was tested. Which IC50 did it give?
A: 4.6 nM

Q: For `CNc1nc(N2CC[C@H](C(F)F)C2)cc(-n2ncc3ccc(C4(C#N)CC45CC5)cc32)n1` (single isomer, unassigned) [Example 2.8-1], which IC50 is on record?
A: 0.7 nM

Q: With `C[C@@H]1CN(c2cc(-n3ncc4ccc([C@]5(C#N)CC56CC6)cc43)ncn2)CCN1C1CCOC1` (single isomer, unassigned) [Example 3.7-2] as the compound, how does the IC50 read?
A: 1.7 nM

Q: How did the IC50 turn out when `CNc1nc(N2CC[C@@H](C(C)(C)O)C2)cc(-n2ncc3ccc(C4(C#N)CC45CC5)cc32)n1` (stereo partly drawn) [Example 2.6-1, 1-(1-(6-((R)-3-(2-hydroxypropan-2-yl)pyrrolidin-1-yl)-2-(methylamino)pyrimidin-4-yl)-1H-indazol-6-yl)spiro[1.2.2]pentane-1-carbonitrile] was run?
A: 0.8 nM

Q: For `N#C[C@@]1(c2ccc3cnn(-c4cc(N5CC(O)C6(CC6)C5)ncn4)c3c2)CC12CC2` (single isomer, unassigned) [Example 3.11-4], which IC50 is on record?
A: 0.6 nM

Q: With `N#C[C@@]1(c2ccc3cnn(-c4cc(C5CC5)ncn4)c3c2)CC12CC2` [Example 4.21] as the compound, how does the IC50 read?
A: 6.5 nM

Q: How did the IC50 turn out when `Cc1nc(N2C[C@@H]3C[C@H]2CN3C2(C)COC2)cc(-n2ncc3ccc([C@]4(C#N)CC45CC5)cc32)n1` [Example 11.4] was run?
A: 8.6 nM

Q: With `C[C@@H]1CN(c2cc(-n3ncc4cnc(C5(C#N)CC56CC6)cc43)ncn2)C[C@H](C)[C@]1(C)O` (single isomer, unassigned) [Example 5.4-1] as the compound, how does the IC50 read?
A: 15 nM

Q: With `CC1(O)CC2(CN(c3cc(-n4ncc5ccc([C@]6(C#N)CC67CC7)cc54)ncn3)C2)C1` [Example 3.9-2] as the compound, how does the IC50 read?
A: 1.5 nM

Q: How did the IC50 turn out when `Cc1nc(N2CC3(C2)CN(C2COC2)C3)cc(-n2ncc3ccc([C@]4(C#N)CC45CC5)cc32)n1` [Example 11.3] was run?
A: 454 nM

Q: With `COCc1nc(N2CC(OC)C2)cc(-n2ncc3ccc([C@]4(C#N)CC45CC5)cc32)n1` [Example 4.5] as the compound, how does the IC50 read?
A: 2.6 nM

Q: Which IC50 does the source give for `Cc1nc(N2CC3(CN(CC(F)(F)F)C3)C2)cc(-n2ncc3ccc(C4(C#N)CC45CC5)cc32)n1` (stereo not shown) [Example 12.2] here?
A: 28.4 nM

Q: How did the IC50 turn out when `CC1C(C(C)(C)O)CCN1c1cc(-n2ncc3ccc([C@]4(C#N)CC45CC5)cc32)ncn1` (single isomer, unassigned) [Example 3.5-2] was run?
A: 31.6 nM

Q: `CC1(O)CC2(CN(c3cc(-n4ncc5ccc([C@@]6(C#N)CC67CC7)cc54)ncn3)C2)C1` [Example 3.9-1] was tested. Which IC50 did it give?
A: 2.5 nM

Q: Which IC50 does the source give for `CC(C)(O)C12CC(C1)N(c1cc(-n3ncc4cnc(C5(C#N)CC56CC6)cc43)ncn1)C2` (single isomer, unassigned) [Example 5.2-1, 1-(1-(6-(4-(2-hydroxypropan-2-yl)-2-azabicyclo[2.1.1]hexan-2-yl)pyrimidin-4-yl)-1H-pyrazolo[4,3-c]pyridin-6-yl)spiro[2.2]pentane-1-carbonitrile] here?
A: 9.2 nM

Q: With `CC(C)(O)C12CC(C1)N(c1cc(-n3ncc4ccc(C5(C#N)CC56CC6)cc43)cnn1)C2` (single isomer, unassigned) [Example 10.3-1, (R or S)-1-(1-(6-(4-(2-hydroxypropan-2-yl)-2-azabicyclo[2.1.1]hexan-2-yl)pyridazin-4-yl)-1H-indazol-6-yl)spiro[2.2]pentane-1-carbonitrile] as the compound, how does the IC50 read?
A: 35.2 nM
